Like-named read-outs stand apart in the source and are kept apart here. A value given as a limit tells only on which side of the number the result lay.

One test addresses T1, Src SH2 (Homo sapiens, UniProt P12931).
T1 construct: glutathione-S-transferase(GST)-Src SH2 fusion protein
Description: Inhibition of 125I-phosphopeptide binding to immobilized Src SH2. Conditions: competitive 125I-phosphopeptide displacement, GST-Src SH2 fusion protein, pH 7.5, room temperature, 20 minutes. As to the method: The binding affinities of compounds of the present invention to Src SH2 was determined using a competitive radiolabeled phosphopeptide displacement assay.
Binding was performed at room temperature for 20 minutes while continuously inverting the plate. […] Results are expressed as IC50 values in Table 1 below.

The target in another test is T2, Abl SH2 (Homo sapiens, UniProt P00519).
T2 construct: glutathione-S-transferase(GST)-Abl SH2 fusion protein
T2 sequence (P00519 127-217 limits assumed): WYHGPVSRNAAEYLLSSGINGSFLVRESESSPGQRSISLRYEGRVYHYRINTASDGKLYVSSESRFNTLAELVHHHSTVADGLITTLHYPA
Nature of the test: Inhibition of 125I-phosphopeptide binding to immobilized Abl SH2. As to the method: The binding affinities of compounds of the present invention to Abl SH2 was determined using a competitive radiolabeled phosphopeptide displacement assay. […] Binding was performed at room temperature for 20 minutes while continuously inverting the plate.

Where [1] appears, read: IC50, Abl SH2 Binding, competitive 125I-phosphopeptide displacement, GST-Abl SH2 fusion protein, pH 7.5, room temperature, 20 minutes.
Setting [2] is: read-out: IC50, SRC SH2 Binding.

T1 sequence (P12931 151-248 limits assumed): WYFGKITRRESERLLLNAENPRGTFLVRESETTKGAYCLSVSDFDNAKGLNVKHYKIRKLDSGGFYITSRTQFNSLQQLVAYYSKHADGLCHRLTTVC

`CC(=O)N[C@@H](Cc1ccc(OP(=O)(O)O)cc1)C(=O)NC(C)c1ccc(OCC2CCCCC2)c(CC(N)=O)c1` (mixture of isomers) [Example 65, (S)-Phosphoric acid mono-(4-{2-acetylamino-2-[(RS)-1-(3-carbamoylmethyl-4-cyclohexylmethoxy-phenyl)-ethylcarbamoyl]-ethyl}-phenyl) ester]: the IC50 (in general, the midpoint of a concentration-inhibition curve) worked out at 9.2 µM on Src SH2 (IC50, SRC SH2 Binding) and 24 µM at Abl SH2 (setting [1]).
On the same counts, the results for `CC(=O)N[C@@H](Cc1ccc(OP(=O)(O)O)cc1)C(=O)NCc1ccc(OC(C)CC2CCCCC2)c(C(N)=O)c1` (mixture of isomers) [Example 66, Phosphoric acid mono-(4-{(S)-2-acetylamino-2-[3-carbamoyl-4-(2-cyclohexyl-(RS)-1-methyl-ethoxy)-benzylcarbamoyl]-ethyl}-phenyl) ester] are 3.8 µM and 11 µM.
On the same counts, the results for `CC(=O)N[C@@H](Cc1ccc(OP(=O)(O)O)cc1)C(=O)NC(Cc1ccccc1)c1ccc(OCC2CCCCC2)c(C(N)=O)c1` (mixture of isomers) [Example 67, Phosphoric acid mono-(4{(S)-2-acetylamino-2-[(RS)-1-(3-carbamoyl-4-cyclohexylmethoxy-phenyl)-2-phenyl-ethylcarbamoyl]-ethyl}-phenyl) ester] are 1 µM and 6 µM.
On the same counts, the results for `CC(=O)N[C@@H](Cc1ccc(OP(=O)(O)O)cc1)C(=O)NC(C)c1ccc(OCc2cc(C)cc(C)c2)c(C(N)=O)c1` (mixture of isomers) [Example 68, Phosphoric acid mono-[4-((S)-2-acetylamino-2-{(RS)-1-[3-carbamoyl-4-(3,5-dimethyl-benzyloxy)-phenyl]-ethylcarbamoyl}-ethyl)-phenyl] ester] are 1.1 µM and 5.7 µM.
Turning to `CCCC(NC(=O)[C@H](Cc1ccc(OP(=O)(O)O)cc1)NC(C)=O)c1ccc(OCC2CCCCC2)c(C(N)=O)c1` (mixture of isomers) [Example 69, Phosphoric acid mono-(4-{(S)-2-acetylamino-2-[(RS)-1-(3-carbamoyl-4-cyclohexylmethoxy-phenyl)-butylcarbamoyl]-ethyl}-phenyl) ester], the IC50 came to 2.1 µM on Src SH2 (IC50, SRC SH2 Binding) and 7.4 µM at Abl SH2 (setting [1]).
Regarding `CC(=O)N[C@@H](Cc1ccc(P(=O)(O)O)cc1)C(=O)NC(C)c1ccc(OCC2CCCCC2)c(C(N)=O)c1` (mixture of isomers) [Example 73, (4-{(S)-2-Acetylamino-2-[(RS)-1-(3-carbamoyl-4-cyclohexylmethoxy-phenyl)-ethylcarbamoyl]-ethyl}-phenyl)-phosphonic acid], the IC50 on Src SH2 (setting [2]) is 8.6 µM; on Abl SH2 (competitive 125I-phosphopeptide displacement, GST-Abl SH2 fusion protein, pH 7.5, room temperature, 20 minutes; read-out: IC50, Abl SH2 Binding), 26 µM.
Turning to `CC(NC(=O)Nc1cccc2cc(OP(=O)(O)O)ccc12)c1ccc(OCC2CCCCC2)c(C(N)=O)c1` (racemic) [Example 75, (+/-)-Phosphoric acid mono-(5-{3-[1-(3-carbamoyl-4-cyclohexylmethoxy-phenyl)-ethyl]-ureido}-naphthalen-2-yl) ester], the 50% inhibitory concentration (IC50) at Src SH2 (IC50, SRC SH2 Binding) is 7.2 µM; at Abl SH2 (setting [1]), around 60 µM.
Regarding `CN(CCCC1CCCCC1)C(=O)[C@H](CCC(=O)O)NC(=O)N(CC(=O)O)Cc1ccc(OP(=O)(O)O)cc1` [Example 35, (S)-4-[3-carboxymethyl-3-(4-phosphonooxy-benzyl)-ureido]-4-[(3-cyclohexyl-propyl)-methyl-carbamoyl]-butyric acid], at Abl SH2 (read-out: IC50, Abl SH2 Binding; competitive 125I-phosphopeptide displacement, GST-Abl SH2 fusion protein, pH 7.5, room temperature, 20 minutes), the IC50 was above 100 µM.
Regarding `CC(C)CCCOc1ccc(CNC(=O)c2ccc(OP(=O)(O)O)cc2)cc1C(N)=O` [Example 42, Phosphoric acid mono-{4-[3-carbamoyl-4-(4-methyl-pentyloxy)-benzylcarbamoyl]-phenyl} ester], the IC50 on Src SH2 (IC50, SRC SH2 Binding) is around 30 µM.
Still for that read-out and setting: to `CCC(C)CCCOc1ccc(CNC(=O)c2ccc(OP(=O)(O)O)cc2)cc1C(N)=O` (stereo not shown) [Example 43, Phosphoric acid mono-{4-[3-carbamoyl-4-(4-methyl-hexyloxy) -benzylcarbamoyl]-phenyl} ester] belongs around 20 µM.
`NC(=O)c1cc(CNC(=O)c2ccc(OP(=O)(O)O)cc2)ccc1OCC1CCCCC1` [Example 44, Phosphoric acid mono-[4-(3-carbamoyl-4-cyclohexyl-methoxy-benzylcarbamoyl)-phenyl] ester]: at Src SH2 (setting [2]), the half-inhibitory concentration (IC50) stood at 6.5 µM.
On the same count and under the same terms, to `NC(=O)c1cc(CNC(=O)c2ccc(C(F)(F)P(=O)(O)O)cc2)ccc1OCC1CCCCC1` [Example 45, [4-(3-Carbamoyl-4-cyclohexylmethoxy-benzylcarbamoyl)-phenyl]-difluoro-methyl-phosphonic acid] belongs around 50 µM.
Turning to `Cc1cc(C(=O)NCc2ccc(OCC3CCCCC3)c(C(N)=O)c2)cc(C)c1OP(=O)(O)O` [Example 46, Phosphoric acid mono-[4-(3-carbamoyl-4-cyclohexyl-methoxy-benzylcarbamoyl)-2,6-dimethyl-phenyl] ester], the IC50 at Src SH2 (IC50, SRC SH2 Binding) turned out to be 12.5 µM.
Turning to `NC(=O)c1cc(CNC(=O)c2ccc(OP(=O)(O)O)c(Cl)c2)ccc1OCC1CCCCC1` [Example 47, Phosphoric acid mono-[4-(3-carbamoyl-4-cyclohexyl-methoxy-benzylcarbamoyl)-2-chloro-phenyl] ester], on Src SH2 (IC50, SRC SH2 Binding), the IC50 was around 20 µM.
The same measure, in the same setting: the value for `CNC(=O)c1cc(CNC(=O)c2ccc(OP(=O)(O)O)cc2)ccc1OCC1CCCCC1` [Example 48, Phosphoric acid mono-[4-(4-cyclohexylmethoxy-3-methylcarbamoyl-benzylcarbamoyl)-phenyl] ester] was around 30 µM.
Same read-out and setting: the value for `CC(=O)N[C@@H](Cc1ccc(OP(=O)(O)O)cc1)C(=O)NCc1ccc(OCC2CCCCC2)c(C(N)=O)c1` [Example 49, (S)-Phosphoric acid mono-{4-[2-acetylamino-2-(3-carbamoyl-4-cyclohexylmethoxy-benzylcarbamoyl)-ethyl]-phenyl} ester] was 8.5 µM; that for `CC(=O)N[C@@H](Cc1ccc(OP(=O)(O)O)cc1)C(=O)NCc1ccc(OCc2cc(C)cc(C)c2)c(C(N)=O)c1` [Example 50, (S)-Phosphoric acid mono-(4-{2-acetylamino-2-[3-carbamoyl-4-(3,5-dimethyl-benzyloxy)-benzylcarbamoyl]-ethyl}-phenyl) ester] was 2.5 µM.
Same read-out and setting: the value for `CNC(=O)N[C@@H](Cc1ccc(OP(=O)(O)O)cc1)C(=O)NCc1ccc(OCC2CCCCC2)c(C(N)=O)c1` [Example 52] was 6.2 µM; that for `CC(=O)N[C@@H](Cc1ccc(C(F)(F)P(=O)(O)O)cc1)C(=O)NCc1ccc(OCC2CCCCC2)c(C(N)=O)c1` [Example 53, (S)-{4-[2-Acetylamino-2-(3-carbamoyl-4-cyclohexyl-methoxy-benzylcarbamoyl)-ethyl]-phenyl}-difluoro-methyl-phosphonic acid] was 12.1 µM.
On Src SH2 (IC50, SRC SH2 Binding), `CC(=O)N[C@@H](Cc1ccc(OP(=O)(O)O)cc1)C(=O)N[C@@H](CCC(=O)O)C(=O)NCCC12CC3CC(CC(C3)C1)C2` [Example 56, [S-(R*,R*)]-4-[2-Acetylamino-3-(4-phosphonooxy-phenyl)-propionylamino]-4-(2-adamantan-1-yl-ethylcarbamoyl)-butyric acid] registered an IC50 of 3.8 µM.
The same measure, in the same setting: to `CC(=O)N[C@@H](Cc1ccc(OP(=O)(O)O)cc1)C(=O)NCc1ccc(OCC2CCCCC2)c(C(=O)NN)c1` [Example 71, (S)-Phosphoric acid mono-{4-[2-acetylamino-2-(4-cyclohexylmethoxy-3-hydrazinocarbonyl-benzylcarbamoyl)-ethyl]-phenyl} ester] belongs 18 µM.

The values are drawn from patent US5922697A, “Compounds, compositions and methods for inhibiting the binding of proteins containing an SH2 domain to cognate phosphorylated proteins” (Warner-Lambert Company, priority 1998, dated 1999).
